Measured values taken from PubChem BioAssay (NCI).
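Test compounds were applied to cells in 96-well plates for 48 hours at 5 doses. The concentration for 50% growth inhibition is given as GI50. TGI is the concentration that stops growth completely.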

Assays:
Test in all cases: DTP human tumour cell line panel, 48 h
786-0 renal = test system: 786-0 renal
A498 renal = test system: A498 renal
COLO 205 colon = test system: COLO 205 colon
KM12 colon = test system: KM12 colon
OVCAR-3 ovarian = test system: OVCAR-3 ovarian
ACHN renal = test system: ACHN renal
DU-145 prostate = test system: DU-145 prostate
CCRF-CEM leukemia = test system: CCRF-CEM leukemia
MDA-MB-231 breast = test system: MDA-MB-231 breast
OVCAR-4 ovarian = test system: OVCAR-4 ovarian
HOP-62 NSCLC = test system: HOP-62 NSCLC
SK-MEL-28 melanoma = test system: SK-MEL-28 melanoma
PC-3 prostate = test system: PC-3 prostate
UACC-62 melanoma = test system: UACC-62 melanoma
HS 578T breast = test system: HS 578T breast
NCI-H23 lung = test system: NCI-H23 lung
BT-549 breast = test system: BT-549 breast
IGROV1 ovarian = test system: IGROV1 ovarian
K-562 leukemia = test system: K-562 leukemia
MALME-3M melanoma = test system: MALME-3M melanoma
LOX IMVI melanoma = test system: LOX IMVI melanoma
HCC-2998 colon = test system: HCC-2998 colon
HT29 colon = test system: HT29 colon
MOLT-4 leukemia = test system: MOLT-4 leukemia
RPMI-8226 leukemia = test system: RPMI-8226 leukemia
SF-539 CNS = test system: SF-539 CNS
NCI/ADR-RES ovarian = test system: NCI/ADR-RES ovarian
MCF7 breast = test system: MCF7 breast
UO-31 renal = test system: UO-31 renal
SF-295 CNS = test system: SF-295 CNS
TK-10 renal = test system: TK-10 renal
RXF 393 renal = test system: RXF 393 renal
SF-268 CNS = test system: SF-268 CNS
SNB-19 CNS = test system: SNB-19 CNS
NCI-H522 lung = test system: NCI-H522 lung
SK-OV-3 ovarian = test system: SK-OV-3 ovarian
SN12C renal = test system: SN12C renal
M14 melanoma = test system: M14 melanoma
A549 NSCLC = test system: A549 NSCLC
NCI-H460 lung = test system: NCI-H460 lung
CAKI-1 renal = test system: CAKI-1 renal
OVCAR-8 ovarian = test system: OVCAR-8 ovarian
HCT-15 colon = test system: HCT-15 colon
NCI-H226 lung = test system: NCI-H226 lung
EKVX NSCLC = test system: EKVX NSCLC
HL-60(TB) leukemia = test system: HL-60(TB) leukemia
HOP-92 NSCLC = test system: HOP-92 NSCLC
MDA-MB-435 = test system: MDA-MB-435
SR leukemia = test system: SR leukemia
SW-620 colon = test system: SW-620 colon
UACC-257 melanoma = test system: UACC-257 melanoma
U251 CNS = test system: U251 CNS
OVCAR-5 ovarian = test system: OVCAR-5 ovarian
HCT-116 colon = test system: HCT-116 colon
SK-MEL-5 melanoma = test system: SK-MEL-5 melanoma
SK-MEL-2 melanoma = test system: SK-MEL-2 melanoma
T-47D breast = test system: T-47D breast

## COc1ccc(CCN2CCCn3c2nc2ccccc2c3=O)cc1
786-0 renal
  GI50: 0.299 µM
  TGI: > 100 µM
A498 renal
  GI50: 0.0296 µM
  TGI: 0.814 µM
COLO 205 colon
  GI50: 0.0555 µM
  TGI: 1.13 µM
KM12 colon
  GI50: 0.0445 µM
  TGI: > 20.5 µM
OVCAR-3 ovarian
  GI50: 0.0328 µM
  TGI: 0.136 µM
ACHN renal
  GI50: 0.978 µM
  TGI: > 100 µM
DU-145 prostate
  GI50: 0.211 µM
  TGI: > 64.8 µM
CCRF-CEM leukemia
  GI50: 0.162 µM
  TGI: > 100 µM
MDA-MB-231 breast
  GI50: 0.408 µM
  TGI: > 100 µM
OVCAR-4 ovarian
  GI50: 0.353 µM
  TGI: > 100 µM
HOP-62 NSCLC
  GI50: 0.084 µM
  TGI: > 61.8 µM
SK-MEL-28 melanoma
  GI50: 2.42 µM
  TGI: > 100 µM
PC-3 prostate
  GI50: 0.127 µM
  TGI: > 100 µM
UACC-62 melanoma
  GI50: 0.185 µM
  TGI: > 100 µM
HS 578T breast
  GI50: 0.356 µM
  TGI: > 100 µM
NCI-H23 lung
  GI50: 0.232 µM
  TGI: > 83.9 µM
BT-549 breast
  GI50: 0.717 µM
  TGI: > 100 µM
IGROV1 ovarian
  GI50: 0.109 µM
  TGI: > 100 µM
K-562 leukemia
  GI50: < 0.0205 µM
  TGI: > 100 µM
MALME-3M melanoma
  GI50: 0.0538 µM
  TGI: > 100 µM
LOX IMVI melanoma
  GI50: 0.0762 µM
  TGI: > 100 µM
HCC-2998 colon
  GI50: 0.362 µM
  TGI: > 100 µM
HT29 colon
  GI50: 0.0365 µM
  TGI: > 28.4 µM
MOLT-4 leukemia
  GI50: 0.0779 µM
  TGI: > 100 µM
RPMI-8226 leukemia
  GI50: 0.353 µM
  TGI: > 100 µM
SF-539 CNS
  GI50: 0.0876 µM
  TGI: 0.432 µM
NCI/ADR-RES ovarian
  GI50: 0.0432 µM
MCF7 breast
  GI50: 0.0295 µM
  TGI: > 100 µM
UO-31 renal
  GI50: 0.876 µM
  TGI: > 100 µM
SF-295 CNS
  GI50: 0.0597 µM
  TGI: > 54.2 µM
TK-10 renal
  TGI: > 100 µM
RXF 393 renal
  GI50: 0.2 µM
  TGI: 35.8 µM
SF-268 CNS
  GI50: 1.16 µM
  TGI: > 100 µM
SNB-19 CNS
  GI50: 0.629 µM
  TGI: > 100 µM
NCI-H522 lung
  GI50: 0.035 µM
  TGI: 1.14 µM
SK-OV-3 ovarian
  GI50: 0.396 µM
  TGI: > 100 µM
SN12C renal
  GI50: 1.1 µM
  TGI: > 100 µM
M14 melanoma
  GI50: 0.0463 µM
  TGI: > 100 µM
A549 NSCLC
  GI50: 0.087 µM
  TGI: > 100 µM
NCI-H460 lung
  GI50: 0.0512 µM
  TGI: > 100 µM
CAKI-1 renal
  GI50: 0.252 µM
  TGI: > 100 µM
OVCAR-8 ovarian
  GI50: 0.423 µM
  TGI: > 100 µM
HCT-15 colon
  GI50: 0.0444 µM
  TGI: > 100 µM
NCI-H226 lung
  GI50: 6.43 µM
  TGI: > 100 µM
EKVX NSCLC
  GI50: 0.97 µM
  TGI: > 100 µM
HL-60(TB) leukemia
  GI50: 0.038 µM
  TGI: 0.982 µM
HOP-92 NSCLC
  GI50: 3.33 µM
  TGI: > 95.6 µM
MDA-MB-435
  GI50: 0.022 µM
  TGI: 0.061 µM
SR leukemia
  GI50: 0.0448 µM
  TGI: > 100 µM
SW-620 colon
  GI50: 0.0508 µM
  TGI: > 100 µM
UACC-257 melanoma
  GI50: > 100 µM
  TGI: > 100 µM
U251 CNS
  GI50: 0.0552 µM
OVCAR-5 ovarian
  GI50: 0.95 µM
  TGI: > 100 µM
HCT-116 colon
  GI50: 0.0493 µM
  TGI: > 100 µM
SK-MEL-5 melanoma
  GI50: 0.0433 µM
  TGI: 4.44 µM

## COc1ccc(/C=C\c2cc(OC)c(OC)c(OC)c2)cc1NC(=O)/C=C/c1ccc(OC)c(OC)c1
786-0 renal
  GI50: 4.79 µM
  TGI: > 100 µM
A498 renal
  GI50: 0.184 µM
  TGI: > 100 µM
COLO 205 colon
  GI50: 2.05 µM
  TGI: 10.9 µM
KM12 colon
  GI50: 3.91 µM
  TGI: > 100 µM
OVCAR-3 ovarian
  GI50: 6.41 µM
  TGI: > 100 µM
ACHN renal
  GI50: 5.25 µM
  TGI: > 100 µM
DU-145 prostate
  GI50: 4.93 µM
  TGI: > 100 µM
CCRF-CEM leukemia
  GI50: 4.19 µM
  TGI: > 100 µM
MDA-MB-231 breast
  GI50: 25.5 µM
  TGI: > 100 µM
OVCAR-4 ovarian
  GI50: 8.01 µM
  TGI: > 100 µM
SK-MEL-2 melanoma
  GI50: 5.51 µM
  TGI: > 100 µM
HOP-62 NSCLC
  GI50: 5.42 µM
  TGI: > 100 µM
SK-MEL-28 melanoma
  GI50: 3.39 µM
  TGI: > 100 µM
PC-3 prostate
  GI50: 3.9 µM
  TGI: > 100 µM
UACC-62 melanoma
  GI50: 3.67 µM
  TGI: > 100 µM
NCI-H23 lung
  GI50: 16.5 µM
  TGI: > 100 µM
BT-549 breast
  GI50: 7.7 µM
  TGI: > 100 µM
IGROV1 ovarian
  GI50: 18.8 µM
  TGI: > 100 µM
MALME-3M melanoma
  GI50: > 100 µM
  TGI: > 100 µM
LOX IMVI melanoma
  GI50: 7.41 µM
  TGI: > 100 µM
HCC-2998 colon
  GI50: 2.72 µM
  TGI: > 100 µM
HT29 colon
  GI50: 3.39 µM
  TGI: > 100 µM
MOLT-4 leukemia
  GI50: 6.66 µM
  TGI: > 100 µM
RPMI-8226 leukemia
  GI50: 3.95 µM
  TGI: > 100 µM
SF-539 CNS
  GI50: 3.1 µM
  TGI: 52.6 µM
NCI/ADR-RES ovarian
  GI50: 0.949 µM
  TGI: > 100 µM
MCF7 breast
  GI50: 3.22 µM
  TGI: > 100 µM
UO-31 renal
  GI50: 6.21 µM
  TGI: > 100 µM
TK-10 renal
  GI50: > 100 µM
  TGI: > 100 µM
SF-268 CNS
  GI50: 7.29 µM
  TGI: > 100 µM
SNB-19 CNS
  GI50: 4.15 µM
  TGI: > 100 µM
NCI-H522 lung
  GI50: 2.61 µM
  TGI: > 100 µM
SK-OV-3 ovarian
  GI50: 0.0736 µM
  TGI: 0.676 µM
SN12C renal
  GI50: 5.43 µM
  TGI: > 100 µM
M14 melanoma
  GI50: 4.3 µM
  TGI: > 100 µM
A549 NSCLC
  GI50: 4.89 µM
  TGI: > 100 µM
NCI-H460 lung
  GI50: 3.46 µM
  TGI: > 100 µM
CAKI-1 renal
  GI50: 3.55 µM
  TGI: > 100 µM
OVCAR-8 ovarian
  GI50: 5.1 µM
  TGI: > 100 µM
T-47D breast
  GI50: 5.98 µM
  TGI: > 100 µM
HCT-15 colon
  GI50: 4.41 µM
  TGI: > 100 µM
NCI-H226 lung
  GI50: 4.03 µM
  TGI: > 100 µM
EKVX NSCLC
  GI50: > 100 µM
  TGI: > 100 µM
HL-60(TB) leukemia
  GI50: 2.54 µM
  TGI: 8.85 µM
HOP-92 NSCLC
  GI50: > 100 µM
  TGI: > 100 µM
MDA-MB-435
  GI50: 0.348 µM
  TGI: 1.71 µM
SR leukemia
  GI50: 0.412 µM
  TGI: > 100 µM
SW-620 colon
  GI50: 4.88 µM
  TGI: > 100 µM
UACC-257 melanoma
  GI50: > 100 µM
  TGI: > 100 µM
U251 CNS
  GI50: 3.53 µM
  TGI: > 100 µM
OVCAR-5 ovarian
  GI50: 7.69 µM
  TGI: > 100 µM
HCT-116 colon
  GI50: 4.35 µM
  TGI: > 100 µM
SK-MEL-5 melanoma
  GI50: 2.89 µM
  TGI: > 100 µM
